Assays:
[1] = target: T1, MAGL (Mus musculus (Mouse), UniProt O35678); test: In vitro competitive activity-based protein profiling (mouse brain membrane fraction or cell lysates), MAGL band; format: biochemical; details: mouse proteome; for inhibition at 1 µM: read-out: MAGL % Inh 1 μM (mouse); for IC50: competitive ABPP
Experimental: In Vitro Competitive Activity-Based Protein Profiling.
Proteomes (mouse brain membrane fraction or cell lysates) (50 μL, 1.0 mg/mL total protein concentration) were preincubated with varying concentrations of inhibitors at 37° C. After 30 min, FP—Rh (1.0 μL, 50 μM in DMSO) was added and the mixture was incubated for another 30 min at 37° C. Reactions were quenched with SDS loading buffer (50 μL-4×) and run on SDS-PAGE.

[2] = target: T2, ABHD6 (Mus musculus (Mouse), UniProt Q8R2Y0); test: In vitro competitive activity-based protein profiling (mouse brain membrane fraction or cell lysates), ABHD6 band; format: biochemical; details: mouse proteome; for inhibition at 1 µM: read-out: ABHD6 % Inh 1 μM (mouse); for IC50: competitive ABPP
Outline: (§1)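 Residual hydrolase activity was measured as gel band fluorescence after FP-Rh labelling (30 min, 37° C) of proteomes pretreated 30 min at 37° C with inhibitor.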

[3] = target: T3, FAAH (Mus musculus (Mouse), UniProt O08914); test: In vitro competitive activity-based protein profiling (mouse brain membrane fraction or cell lysates), FAAH band; format: biochemical; details: mouse proteome; for inhibition at 1 µM: read-out: FAAH % Inh 1 μM (mouse); for IC50: competitive ABPP
Outline: as §1

[4] = target: MAGL (Homo sapiens (Human), UniProt Q99685); test: In vitro competitive activity-based protein profiling (human prefrontal cortex or cell membrane fractions; hMAGL expressed in HEK293T cells); format: biochemical; details: human proteome, competitive ABPP
Experimental: In Vitro Competitive Activity-Based Protein Profiling (Human).
Proteomes (human prefrontal cortex or cell membrane fractions) (50 μL, 1.0-2.0 mg/mL total protein concentration) were preincubated with varying concentrations of inhibitors at 37° C. After 30 min, FP—Rh or JW912 (1.0 μL, 50 μM in DMSO) was added and the mixture was incubated for another 30 min at room temperature. Reactions were quenched with SDS loading buffer (15 μL-4×) and run on SDS-PAGE.
Recombinant Expression of Human MAGL in HEK293T Cells.
Cell lysates were diluted with mock proteomes for use in competitive ABPP experiments.

[5] = target: T3, FAAH; test: Mouse brain proteomes from inhibitor treated mice (oral gavage, sacrificed 4 h after administration, ABPP analysis), FAAH; format: in vivo, mouse (C57Bl/6J); details: 5 mg/kg oral gavage
Outline: (§2)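 Read-out is % inhibition at 5 mg/kg in brain proteomes profiled by activity-based protein profiling. Inhibitors were dosed orally to wild-type C57Bl/6J mice, with sacrifice at 4 h.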

[6] = target: T2, ABHD6; test: Mouse brain proteomes from inhibitor treated mice (oral gavage, sacrificed 4 h after administration, ABPP analysis), ABHD6; format: in vivo, mouse (C57Bl/6J); details: 5 mg/kg oral gavage
Outline: as §2

[7] = target: T1, MAGL; test: Mouse brain proteomes from inhibitor treated mice (oral gavage, sacrificed 4 h after administration, ABPP analysis); format: in vivo, mouse (C57Bl/6J); details: 5 mg/kg oral gavage
Outline: as §2

Sequence of MAGL (Homo sapiens (Human), UniProt Q99685) (Q99685 whole entry): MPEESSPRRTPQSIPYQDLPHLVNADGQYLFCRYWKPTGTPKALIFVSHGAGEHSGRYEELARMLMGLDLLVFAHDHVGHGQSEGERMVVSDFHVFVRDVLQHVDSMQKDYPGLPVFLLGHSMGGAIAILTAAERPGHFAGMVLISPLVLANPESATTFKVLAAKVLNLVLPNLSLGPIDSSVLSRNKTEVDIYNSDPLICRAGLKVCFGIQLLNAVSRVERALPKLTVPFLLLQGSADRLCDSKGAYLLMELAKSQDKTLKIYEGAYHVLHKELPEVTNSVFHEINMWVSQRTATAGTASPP
T1 sequence (O35678 whole entry): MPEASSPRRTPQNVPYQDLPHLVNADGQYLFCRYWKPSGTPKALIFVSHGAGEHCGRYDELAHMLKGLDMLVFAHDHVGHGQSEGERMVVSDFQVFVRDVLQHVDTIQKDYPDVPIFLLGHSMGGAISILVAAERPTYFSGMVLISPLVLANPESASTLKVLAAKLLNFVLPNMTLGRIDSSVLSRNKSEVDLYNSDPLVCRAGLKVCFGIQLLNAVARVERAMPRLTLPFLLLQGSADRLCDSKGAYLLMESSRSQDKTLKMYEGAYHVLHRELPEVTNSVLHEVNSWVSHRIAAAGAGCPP
T2 sequence (Q8R2Y0 whole entry): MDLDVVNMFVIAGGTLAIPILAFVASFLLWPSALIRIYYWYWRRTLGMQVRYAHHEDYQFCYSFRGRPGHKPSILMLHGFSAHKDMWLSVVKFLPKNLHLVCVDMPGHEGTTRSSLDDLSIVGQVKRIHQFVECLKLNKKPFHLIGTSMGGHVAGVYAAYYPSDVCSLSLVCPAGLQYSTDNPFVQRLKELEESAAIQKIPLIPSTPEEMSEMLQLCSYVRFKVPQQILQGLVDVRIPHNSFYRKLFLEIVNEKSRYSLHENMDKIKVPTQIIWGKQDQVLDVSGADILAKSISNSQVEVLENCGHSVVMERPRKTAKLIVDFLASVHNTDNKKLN
T3 sequence (O08914 whole entry): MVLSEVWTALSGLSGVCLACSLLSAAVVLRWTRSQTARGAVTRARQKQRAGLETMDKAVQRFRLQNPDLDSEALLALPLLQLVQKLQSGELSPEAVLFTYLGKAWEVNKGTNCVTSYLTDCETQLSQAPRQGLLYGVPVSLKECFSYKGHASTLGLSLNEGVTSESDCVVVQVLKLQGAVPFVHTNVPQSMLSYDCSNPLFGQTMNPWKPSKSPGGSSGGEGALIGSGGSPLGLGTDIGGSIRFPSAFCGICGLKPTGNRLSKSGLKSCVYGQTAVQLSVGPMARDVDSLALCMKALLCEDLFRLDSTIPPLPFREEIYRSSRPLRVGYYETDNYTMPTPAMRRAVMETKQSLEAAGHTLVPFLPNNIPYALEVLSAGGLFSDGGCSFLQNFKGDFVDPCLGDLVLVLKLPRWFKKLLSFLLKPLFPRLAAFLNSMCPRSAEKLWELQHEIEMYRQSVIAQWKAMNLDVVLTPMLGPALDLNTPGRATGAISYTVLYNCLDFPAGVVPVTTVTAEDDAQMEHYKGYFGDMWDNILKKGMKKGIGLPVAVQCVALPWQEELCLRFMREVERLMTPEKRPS

Structure (SMILES)	inhibition at 1 µM [1]	IC50 [1]	inhibition at 1 µM [2]	IC50 [2]	inhibition at 1 µM [3]	IC50 [3]	IC50 [4]	FAAH % Inh 5 mg/kg (mouse) [5]	ABHD6 % Inh 5 mg/kg (mouse) [6]	MAGL % Inh 5 mg/kg (mouse) [7]
COC(=O)C1CCN(c2cc(C(F)(F)F)ccc2CN2CC3(CCN(C(=O)OC(C(F)(F)F)C(F)(F)F)CC3)CC2(C)C)CC1 [Example 53, 1,1,1,3,3,3-Hexafluoropropan-2-yl 2-(2-(4-(methoxycarbonyl)piperidin-1-yl)-4-(trifluoromethyl)benzyl)-3,3-dimethyl-2,8-diazaspiro[4.5]decane-8-carboxylate]	> 75%	100 to 1000 nM	< 25%	> 1000 nM	< 25%	> 1000 nM	< 100 nM	–	–	–
O=C(OC(C(F)(F)F)C(F)(F)F)N1CCC2(CCCN2Cc2cc(Oc3cccnc3)cc(C(F)(F)F)c2)CC1 [Example 174, 1,1,1,3,3,3-Hexafluoropropan-2-yl 1-(3-(pyridin-3-yloxy)-5-(trifluoromethyl)benzyl)-1,8-diazaspiro[4.5]decane-8-carboxylate]	> 75%	< 100 nM	25 to 75%	> 1000 nM	< 25%	> 1000 nM	–	# (# is <25%)	# (# is <25%)	## (## is equal to or greater than 25% but less than 75%)
O=C(OC(C(F)(F)F)C(F)(F)F)N1CCC2(CCCN2Cc2cc(OC3CCS(=O)(=O)CC3)cc(C(F)(F)F)c2)CC1 [Example 176, 1,1,1,3,3,3-Hexafluoropropan-2-yl 1-(3-((1,1-dioxidotetrahydro-2H-thiopyran-4-yl)oxy)-5-(trifluoromethyl)benzyl)-1,8-diazaspiro[4.5]decane-8-carboxylate]	> 75%	< 100 nM	< 25%	> 1000 nM	< 25%	> 1000 nM	–	# (# is <25%)	# (# is <25%)	## (## is equal to or greater than 25% but less than 75%)
Cc1cc(CN2CCCC23CCN(C(=O)OC(C(F)(F)F)C(F)(F)F)CC3)ccc1C(F)(F)F [Example 177, 1,1,1,3,3,3-Hexafluoropropan-2-yl 1-(3-methyl-4-(trifluoromethyl)benzyl)-1,8-diazaspiro[4.5]decane-8-carboxylate]	> 75%	100 to 1000 nM	25 to 75%	> 1000 nM	< 25%	> 1000 nM	–	# (# is <25%)	# (# is <25%)	### (### is ≥75%)
NC(=O)c1cc(CN2CCCC23CCN(C(=O)OC(C(F)(F)F)C(F)(F)F)CC3)ccc1C(F)(F)F [Example 178, 1,1,1,3,3,3-hexafluoropropan-2-yl 1-(3-carbamoyl-4-(trifluoromethyl)benzyl)-1,8-diazaspiro[4.5]decane-8-carboxylate]	> 75%	< 100 nM	25 to 75%	> 1000 nM	< 25%	> 1000 nM	< 100 nM	–	–	–
Cc1ccc(CN2CCCC23CCN(C(=O)OC(C(F)(F)F)C(F)(F)F)CC3)cc1C(F)(F)F [Example 180, 1,1,1,3,3,3-Hexafluoropropan-2-yl 1-(4-methyl-3-(trifluoromethyl)benzyl)-1,8-diazaspiro[4.5]decane-8-carboxylate]	> 75%	< 100 nM	< 25%	> 1000 nM	< 25%	> 1000 nM	–	## (## is equal to or greater than 25% but less than 75%)	## (## is equal to or greater than 25% but less than 75%)	### (### is ≥75%)
O=C(OC(C(F)(F)F)C(F)(F)F)N1CCC2(CCCN2Cc2ccc(C(F)(F)F)c(Cl)c2)CC1 [Example 183, 1,1,1,3,3,3-Hexafluoropropan-2-yl 1-(3-chloro-4-(trifluoromethyl)benzyl)-1,8-diazaspiro[4.5]decane-8-carboxylate]	> 75%	< 100 nM	25 to 75%	> 1000 nM	< 25%	> 1000 nM	–	# (# is <25%)	# (# is <25%)	### (### is ≥75%)
O=C(OC(C(F)(F)F)C(F)(F)F)N1CCC2(CCCN2Cc2ccc(Cl)c(C(F)(F)F)c2)CC1 [Example 184, 1,1,1,3,3,3-Hexafluoropropan-2-yl 1-(4-chloro-3-(trifluoromethyl)benzyl)-1,8-diazaspiro[4.5]decane-8-carboxylate]	> 75%	< 100 nM	< 25%	> 1000 nM	< 25%	> 1000 nM	–	# (# is <25%)	# (# is <25%)	### (### is ≥75%)
CN1CCN(c2c(Cl)cccc2CN2CC3(CCN(C(=O)OC(C(F)(F)F)C(F)(F)F)CC3)CC2(C)C)CC1 [Example 189, 1,1,1,3,3,3-Hexafluoropropan-2-yl 2-(3-chloro-2-(4-methylpiperazin-1-yl)benzyl)-3,3-dimethyl-2,8-diazaspiro[4.5]decane-8-carboxylate]	> 75%	< 100 nM	25 to 75%	100 to 1000 nM	< 25%	> 1000 nM	–	# (# is <25%)	# (# is <25%)	## (## is equal to or greater than 25% but less than 75%)
C#Cc1ccc(CN2CCCC23CCN(C(=O)OC(C(F)(F)F)C(F)(F)F)CC3)c(N2CCC(C(=O)O)CC2)c1 [Example 198, 1-{5-Ethynyl-2-[(8-{[(1,1,1,3,3,3-hexafluoropropan-2-yl)oxy]carbonyl}-1,8-diazaspiro[4.5]decan-1-yl)methyl]phenyl}piperidine-4-carboxylic acid]	> 75%	–	< 25%	–	< 25%	–	< 100 nM	–	–	–
O=C(O)C1CCN(c2cc(C(F)(F)F)ccc2CN2CCC3(CCN(C(=O)OC(C(F)(F)F)C(F)(F)F)CC3)C2)C1 (stereo not drawn) [Example 201]	> 75%	–	≥ 75%	–	< 25%	–	< 100 nM	–	–	–
O=C(O)C1CCN(c2cc(CN3CCC4(CCN(C(=O)OC(C(F)(F)F)C(F)(F)F)CC4)C3)cc(C(F)(F)F)c2)C1 (stereo not drawn) [Example 202]	> 75%	–	≥ 75%	–	< 25%	–	< 100 nM	–	–	–
O=C(O)C1CCN(c2cc(CN3CCCC34CCN(C(=O)OC(C(F)(F)F)C(F)(F)F)CC4)cc(C(F)(F)F)c2)C1 (stereo not drawn) [Example 203]	> 75%	–	< 25%	–	< 25%	–	< 100 nM	–	–	–
O=C(O)C1CN(c2cc(CN3CCCC34CCN(C(=O)OC(C(F)(F)F)C(F)(F)F)CC4)cc(C(F)(F)F)c2)CCO1 (stereo not drawn) [Example 204]	> 75%	–	< 25%	–	< 25%	–	< 100 nM	–	–	–
O=C(OC(C(F)(F)F)C(F)(F)F)N1CCC2(CCCN2Cc2cc(-c3nnn[nH]3)cc(C(F)(F)F)c2)CC1 [Example 205]	> 75%	–	25 to 75%	–	< 25%	–	< 100 nM	–	–	–
O=C(O)c1cc(CN2CCCC23CCN(C(=O)OC(C(F)(F)F)C(F)(F)F)CC3)cc(C(F)(F)F)c1 [Example 206]	> 75%	–	25 to 75%	–	< 25%	–	< 100 nM	–	–	–
O=C(O)C1CN(c2cc(C(F)(F)F)ccc2CN2CCC3(CCN(C(=O)OC(C(F)(F)F)C(F)(F)F)CC3)C2)CCO1 (stereo not drawn) [Example 209]	> 75%	–	25 to 75%	–	< 25%	–	< 100 nM	–	–	–
O=C(O)[C@H]1CCCN(c2cc(C(F)(F)F)ccc2CN2CCC3(CCN(C(=O)OC(C(F)(F)F)C(F)(F)F)CC3)C2)C1 [Example 215]	> 75%	–	≥ 75%	–	< 25%	–	< 100 nM	–	–	–
CC1(C(=O)O)CCN(c2cc(C(F)(F)F)ccc2CN2CCC3(CCN(C(=O)OC(C(F)(F)F)C(F)(F)F)CC3)C2)C1 (stereo not drawn) [Example 219]	> 75%	–	≥ 75%	–	< 25%	–	< 100 nM	–	–	–

From patent US10030020B2, “Spirocycle compounds and methods of making and using same” (Abide Therapeutics, Inc., priority 2016, dated 2018)
